This experiment deals with T1, human GluN1/GluN2B NMDA receptors (Homo sapiens, UniProt Q05586+Q13224).
T1 construct: expressed in transfected cells
Put plainly: Calcium flux (FLIPR) assay on cloned human NR1/GluN2B ion channels expressed in mammalian cells, standard assay. To be noted: glutamate ~EC40 and 10 μM glycine, stable cell line with Tet-On induced expression. In kind it is cell-based. Here is the method: Effects of Test Articles on Cloned Human NR1/GluN2B Ion Channels Expressed in Mammalian Cells
NMDA receptors are ion channels that are highly permeable to Ca^2+ ions, rendering it possible to monitor NMDA receptor function using cell-based calcium flux assay. In this assay, co-agonists glutamate and glycine are added to cells heterologously expressing human GluN1/GluN2B NMDA receptors to initiate cellular Ca^2+ influx. The time course of the changes in intracellular calcium is measured using a fluorescent dye and a FLIPR (Fluorometric Imaging Plate Reader) device.
Twenty four hours before measurements, the expression of the NMDA receptors in the stable cell line is induced with Tet-On inducible system in the presence of a non-selective NMDA receptor blocker. On the day of the experiment, cell culture media is carefully washed and the cells are loaded with Calcium 5 Dye Kit (Molecular Devices) in dye loading buffer containing 137 mM NaCl, 4 mM KCl, 2 mM CaCl2, 0.5 mM MgCl2 (standard assay) or 1.5 mM MgCl2 (HTS assay), 10 mM HEPES and 5 mM D-glucose; pH 7.4. After 1 h incubation at the room temperature, the dye is washed away with the assay buffer (137 mM NaCl (standard assay) or 150 mM (HTS assay), 4 mM KCl (standard assay) or 3 mM (HTS assay), 2 mM CaC2, 0.01 mM EDTA, 10 mM HEPES and 5 mM D-glucose; pH 7.4) In the FLIPR TETRA reader, various concentrations of the test compounds are added to the cells for 5 min while fluorescence is monitored to detect potential agonist activity. Next, co-agonists, glutamate and glycine are added for another 5 minutes. The concentration of glutamate corresponding to ˜EC40 (standard assay) or EC40 (HTS assay) is used to maximize the assay's signal window and ability to detect NMDA receptor antagonists and negative allosteric modulators. A saturating concentration (10 μM) of glycine is also present in the assay. A non-selective NMDA receptor antagonist, (+)MK-801 is used as a positive control for antagonist activity. The fluorescent signal in the presence of test compounds is quantified and normalized to the signal defined by the appropriate control wells.

Each structure is given as a SMILES string. pIC50: −log10 of the molar value.

This note sets out measurements from patent US11161846B2, “Substituted pyrazolo[4,3-b]pyridines and their use as GluN2B receptor modulators” (JANSSEN PHARMACEUTICA NV, priority 2019, dated 2021).

T1 sequence (Q13224 27-1484, other chains not shown): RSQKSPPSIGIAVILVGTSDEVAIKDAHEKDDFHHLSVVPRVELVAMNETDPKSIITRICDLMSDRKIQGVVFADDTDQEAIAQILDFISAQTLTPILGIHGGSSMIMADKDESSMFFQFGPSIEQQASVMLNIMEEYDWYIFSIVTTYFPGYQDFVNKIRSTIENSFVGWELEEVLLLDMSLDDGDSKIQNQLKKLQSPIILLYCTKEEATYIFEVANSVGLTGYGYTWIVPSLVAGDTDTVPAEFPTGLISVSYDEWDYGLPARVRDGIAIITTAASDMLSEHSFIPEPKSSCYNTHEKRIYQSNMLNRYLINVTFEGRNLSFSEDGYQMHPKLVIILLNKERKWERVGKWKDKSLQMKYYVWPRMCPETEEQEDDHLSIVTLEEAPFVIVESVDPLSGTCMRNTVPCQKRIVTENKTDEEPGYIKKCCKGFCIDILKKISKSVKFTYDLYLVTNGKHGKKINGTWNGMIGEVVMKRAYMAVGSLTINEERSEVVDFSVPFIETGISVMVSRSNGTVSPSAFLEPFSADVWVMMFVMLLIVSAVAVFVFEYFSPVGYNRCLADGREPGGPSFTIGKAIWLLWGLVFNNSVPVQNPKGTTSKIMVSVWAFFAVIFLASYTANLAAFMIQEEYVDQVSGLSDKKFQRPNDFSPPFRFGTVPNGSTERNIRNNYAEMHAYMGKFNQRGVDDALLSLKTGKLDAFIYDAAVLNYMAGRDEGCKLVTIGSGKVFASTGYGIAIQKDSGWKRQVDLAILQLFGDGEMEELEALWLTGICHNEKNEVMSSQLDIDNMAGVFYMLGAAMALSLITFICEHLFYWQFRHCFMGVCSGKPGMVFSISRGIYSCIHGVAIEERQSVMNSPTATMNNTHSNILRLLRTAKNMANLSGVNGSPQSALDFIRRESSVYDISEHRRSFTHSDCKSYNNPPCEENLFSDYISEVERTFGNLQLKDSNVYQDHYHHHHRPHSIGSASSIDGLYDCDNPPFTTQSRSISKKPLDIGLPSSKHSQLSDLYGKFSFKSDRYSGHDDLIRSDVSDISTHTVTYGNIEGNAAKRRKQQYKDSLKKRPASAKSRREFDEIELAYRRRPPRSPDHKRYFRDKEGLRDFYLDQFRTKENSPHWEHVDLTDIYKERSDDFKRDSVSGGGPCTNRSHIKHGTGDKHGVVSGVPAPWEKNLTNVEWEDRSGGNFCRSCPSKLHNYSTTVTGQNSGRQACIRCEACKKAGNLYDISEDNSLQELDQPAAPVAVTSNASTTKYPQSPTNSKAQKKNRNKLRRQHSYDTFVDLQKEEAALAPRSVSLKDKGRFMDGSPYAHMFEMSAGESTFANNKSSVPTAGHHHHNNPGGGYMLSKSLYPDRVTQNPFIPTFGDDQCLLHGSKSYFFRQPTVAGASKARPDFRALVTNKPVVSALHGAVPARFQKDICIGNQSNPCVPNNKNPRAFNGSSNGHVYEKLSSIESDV

For `CC(C)C(=O)Cn1ncc2ncc(-c3ccc(F)c(F)c3F)cc21` [Example 54, 3-Methyl-1-[6-(2,3,4-trifluorophenyl)pyrazolo[4,3-b]pyridin-1-yl]butan-2-one], the pIC50 – broadly, the negative decadic logarithm of the IC50, by convention in mol/L – was 6.69.
Take `O=C(Cn1ncc2ncc(-c3cccc(F)c3)cc21)C1CC1` [Example 57, 1-Cyclopropyl-2-[6-(3-fluorophenyl)pyrazolo[4,3-b]pyridin-1-yl]ethanone]: the pIC50 was 7.59.
Consider `CN1CCC(Cn2ncc3ncc(-c4ccc(F)c(OC(F)F)c4)cc32)C1=O` (racemic) [Example 119, (RS)-3-((6-(3-(Difluoromethoxy)-4-fluorophenyl)-1H-pyrazolo[4,3-b]pyridin-1-yl)methyl)-1-methylpyrrolidin-2-one], for which the negative logarithm of the IC50 (pIC50) was 6.45.
Then `CC[S+]([O-])Cn1ncc2ncc(-c3cccc(F)c3)cc21` (racemic) [Example 80, (RS)-1-(Ethylsulfinylmethyl)-6-(3-fluorophenyl)pyrazolo[4,3-b]pyridine], with 6.08.
On to `CN1C(=O)OCC1Cn1ncc2ncc(-c3ccc(F)c(OC(F)F)c3)cc21` (racemic) [Example 123, (RS)-4-((6-(3-(difluoromethoxy)-4-fluorophenyl)-1H-pyrazolo[4,3-b]pyridin-1-yl)methyl)-3-methyloxazolidin-2-one], for which the pIC50 is 5.55.
In the case of `O=C(Cn1ncc2ncc(-c3cccc(C(F)(F)F)c3)cc21)C1CC1` [Example 62, 1-Cyclopropyl-2-[6-[3-(trifluoromethyl)phenyl]pyrazolo[4,3-b]pyridin-1-yl]ethanone], the pIC50 was 7.34.
For `O=C(Cn1ncc2ncc(-c3ccc(F)c(C(F)(F)F)c3)cc21)C1CC1` [Example 74, 1-Cyclopropyl-2-[6-[4-fluoro-3-(trifluoromethyl)phenyl]pyrazolo[4,3-b]pyridin-1-yl]ethanone], the negative-log IC50 (pIC50) is 7.44.
`CC(C)C(=O)Cn1ncc2ncc(-c3cccc(C(F)(F)F)c3F)cc21` [Example 50, 1-[6-[2-Fluoro-3-(trifluoromethyl)phenyl]pyrazolo[4,3-b]pyridin-1-yl]-3-methyl-butan-2-one]: the pIC50 was 7.12.
As for `Fc1ccc(-c2cnc3cnn(CC4CCCO4)c3c2)cc1OC(F)F` (racemic) [Example 112, (RS)-6-[3-(Difluoromethoxy)-4-fluoro-phenyl]-1-(tetrahydrofuran-2-ylmethyl)pyrazolo[4,3-b]pyridine], the negative-log IC50 (pIC50) was 6.95.
`CCC(=O)Cn1ncc2ncc(-c3cccc(F)c3F)cc21` [Example 33, 1-[6-(2,3-Difluorophenyl)pyrazolo[4,3-b]pyridin-1-yl]butan-2-one]: the pIC50 is 7.34.
As for `CCC(O)Cn1ncc2ncc(-c3ccc(F)c(F)c3)cc21` (racemic) [Example 91, (RS)-1-[6-(3,4-Difluorophenyl)pyrazolo[4,3-b]pyridin-1-yl]butan-2-ol], the negative-log IC50 (pIC50) is 6.28.
As to `CC[S+]([O-])Cn1ncc2ncc(-c3ccc(Cl)c(OC(F)F)c3)cc21` (racemic) [Example 87, (RS)-6-[4-Chloro-3-(difluoromethoxy)phenyl]-1-(ethylsulfinylmethyl)pyrazolo[4,3-b]pyridine], the pIC50 was 6.96.
`CC(C)C(=O)Cn1ncc2ncc(-c3ccc(F)c(F)c3)cc21` [Example 49, 1-[6-(3,4-Difluorophenyl)pyrazolo[4,3-b]pyridin-1-yl]-3-methyl-butan-2-one]: the pIC50 was 7.60.
On to `CN1C(=O)OCC1Cn1ncc2ncc(-c3ccc(F)c(C(F)F)c3)cc21` (racemic) [Example 124, (RS)-4-[[6-[3-(Difluoromethyl)-4-fluoro-phenyl]pyrazolo[4,3-b]pyridin-1-yl]methyl]-3-methyl-oxazolidin-2-one], for which the pIC50 is 5.72.
Consider `CON=C(Cn1ncc2ncc(-c3cccc(C(F)(F)F)c3)cc21)C(C)C` (mixture of isomers) [Example 105, (E/Z)-N-Methoxy-3-methyl-1-[6-[3-(trifluoromethyl)phenyl]pyrazolo[4,3-b]pyridin-1-yl]butan-2-imine], for which the pIC50 is 5.28.
Regarding `O=C(Cn1ncc2ncc(-c3cc(F)cc(F)c3)cc21)C1CC1` [Example 66, 1-Cyclopropyl-2-[6-(3,5-difluorophenyl)pyrazolo[4,3-b]pyridin-1-yl]ethanone], the pIC50 was 7.72.
Turning to `CC(=O)Cn1ncc2ncc(-c3ccc(F)c(C)c3)cc21` [Example 24, 1-[6-(4-Fluoro-3-methyl-phenyl)pyrazolo[4,3-b]pyridin-1-yl]propan-2-one], the negative-log IC50 (pIC50) was 7.82.
The figure for `Cc1cc(-c2cnc3cnn(CC(=O)C4CC4)c3c2)ccc1F` [Example 69, 1-Cyclopropyl-2-[6-(4-fluoro-3-methyl-phenyl)pyrazolo[4,3-b]pyridin-1-yl]ethanone] is 7.72; for `ON=C(Cn1ncc2ncc(-c3cccc(C(F)(F)F)c3)cc21)C1CC1` (mixture of isomers) [Example 106, (E/Z)-1-Cyclopropyl-2-[6-[3-(trifluoromethyl)phenyl]pyrazolo[4,3-b]pyridin-1-yl]ethanone oxime] it is 5.83; for `CN1CC[C@H](Cn2ncc3ncc(-c4ccc(F)c(C(F)F)c4)cc32)C1=O` [Example 118, (R)-3-[[6-[3-(Difluoromethyl)-4-fluoro-phenyl]pyrazolo[4,3-b]pyridin-1-yl]methyl]-1-methyl-pyrrolidin-2-one] it is 6.90.
As to `CCC(=O)Cn1ncc2ncc(-c3cccc(C(C)(F)F)c3)cc21` [Example 31, 1-[6-[3-(1,1-Difluoroethyl)phenyl]pyrazolo[4,3-b]pyridin-1-yl]butan-2-one], the pIC50 is 7.46.
Then `CC(C)C(=O)Cn1ncc2ncc(-c3cccc(F)c3F)cc21` [Example 48, 1-[6-(2,3-Difluorophenyl)pyrazolo[4,3-b]pyridin-1-yl]-3-methyl-butan-2-one], with 6.76; and `O=C1O[C@@H](Cn2ncc3ncc(-c4ccc(F)c(C(F)F)c4)cc32)CN1C1CC1` [Example 136, (R)-3-Cyclopropyl-5-[[6-[3-(difluoromethyl)-4-fluoro-phenyl]pyrazolo[4,3-b]pyridin-1-yl]methyl]oxazolidin-2-one], with 6.00; and `CCC(O)Cn1nc(F)c2ncc(-c3ccc(F)c(F)c3)cc21` (racemic) [Example 94, (RS)-1-[6-(3,4-Difluorophenyl)-3-fluoro-pyrazolo[4,3-b]pyridin-1-yl]butan-2-ol], with 6.02.
With `CCC(=O)Cn1ncc2ncc(-c3ccc(F)c(C(C)(F)F)c3)cc21` [Example 37, 1-[6-[3-(1,1-Difluoroethyl)-4-fluoro-phenyl]pyrazolo[4,3-b]pyridin-1-yl]butan-2-one], the pIC50 was 7.39.
For `CC[S+]([O-])Cn1ncc2ncc(-c3ccc(F)c(OC(F)F)c3)cc21` (racemic) [Example 12, (RS)-6-[3-(Difluoromethoxy)-4-fluoro-phenyl]-1-(ethylsulfinylmethyl)pyrazolo[4,3-b]pyridine], the pIC50 is 6.84.
On to `CCC(O)Cn1ncc2ncc(-c3cccc(C(C)(F)F)c3)cc21` (racemic) [Example 95, (RS)-1-[6-[3-(1,1-Difluoroethyl)phenyl]pyrazolo[4,3-b]pyridin-1-yl]butan-2-ol], for which the pIC50 was 6.57.
For the molecule `O=C1OC(Cn2ncc3ncc(-c4ccc(F)c(C(F)F)c4)cc32)CN1C1CC1` (racemic) [Example 134, (RS)-3-Cyclopropyl-5-[[6-[3-(difluoromethyl)-4-fluoro-phenyl]pyrazolo[4,3-b]pyridin-1-yl]methyl]oxazolidin-2-one], the pIC50 is 5.79.
